Read-outs that look alike come from different tables or passages of the source.
Experiments:
[1] = test system: galactitol accumulation in rat erythrocytes; experiment: Blood culture and intracellular galactitol measurement; format: cell-based; settings: 30 mM galactose, 50 μg/mL compound, 3 h; for inhibition at 50 µg/mL: Rattus norvegicus, Erythrocyte
Protocol: Blood sample was collected in heparin-containing polypropylene tube from 10-week-old male rats. For sugar and sugar alcohol analysis, erythrocytes from heparinized blood were separated from the plasma and buffy coat by centrifuging at 2000 ×g for 10 min. The cells were washed thrice with normal saline (0.9% NaCl) at 4°C. In the final washing, the cells were centrifuged at 2000 ×g for 10 min to obtain a consistently packed cell preparation. The packed cells (1 mL) were then incubated in a Krebs-Ringer bicarbonate buffer (pH 7.4) containing 30 mM galactose in the presence or absence of samples at 37°C in 5% CO2 for 3 h. The erythrocytes were washed with cold saline by centrifuging at 2000 ×g for 10 min, precipitated by adding 6% of cold perchloric acid (3 mL), and centrifuged again at 2000 ×g for 10 min. The supernatant was neutralized with 2.5 M K2CO3 at 4°C and used for galactitol determination. HPLC analysis for sugar and sugar alcohol in blood was performed with this supernatant of red blood cell homogenate after being benzoylated.

[2] = molecular target: T1, rat lens aldose reductase (RLAR) (Rattus norvegicus, UniProt P07943); experiment: Rat lens aldose reductase (RLAR) inhibitory assay, DL-glyceraldehyde as substrate; format: biochemical; settings: for inhibition at 1 µg/mL: concentration 1 μg/mL; for inhibition at 5 µg/mL: concentration 5 μg/mL; for inhibition at 10 µg/mL: read-out: Inhibition (%) of RLAR; for inhibition at 40 µg/mL: concentration 40 μg/mL; for IC50: least-squares regression of log concentration vs inhibitory activity
T1 construct: from tissue; host or cells: rat lens (Sprague-Dawley) homogenate, partially purified
Protocol: RLAR activity was assayed according to the methods described by Dufrane et al.. […] The rat lens homogenate was prepared according to the method of Hayman and Kinoshita with some modifications. […] The partially purified material was separated into 1.0 mL aliquots and stored at −40°C. […] Each 1.0 mL cuvette contained equal units of enzyme, 0.05 M sodium phosphate buffer (pH 6.2), and 0.3 mM NADPH with or without 10 mM substrate and inhibitor. For inhibition studies, concentrated stocks of AR inhibitors prepared in DMSO were used, and the final concentration of DMSO was not more than 1%.

[3] = test system: galactitol accumulation in rat lens; experiment: Lens culture and intracellular galactitol measurement; format: cell-based; settings: 30 mM galactose, compound 5 μg/mL; for Galactitol content μg/lens wet weight (g): mean ± SD of triplicate; for inhibition at 5 µg/mL: Rattus norvegicus
Protocol: Lenses isolated from 10-week-old male rats were cultured for 6 d in TC-199 medium that contained 15% fetal bovine serum 100 U/mL penicillin and 0.1 mg/mL streptomycin under sterile conditions in an atmosphere of 5% CO2 and 95% air at 37°C. Samples were dissolved in DMSO. […] Each lens was placed in well containing 1.0 mL of medium. Lenses from each group were minced in 150 μL of phosphate-buffered saline on ice, homogenized by sonication, and centrifuged at 22.000 g for 10 min at 4°C. The supernatant was filtered through a membrane filter (Ultrafree-MC, nominal molecular weight limit 10,000; Millipore, Bedford, MA, USA) to remove proteins. HPLC analysis for sugar alcohol in lens was performed with this filtrate after being benzoylated.

[4] = molecular target: T2, recombinant human aldose reductase (rhAR) (Homo sapiens, UniProt P15121); experiment: Kinetics of rhAR by active compounds (Lineweaver-Burk plots); format: biochemical; settings: DL-glyceraldehyde 0.1-1.0 mM
T2 construct: purchased Wako Pure Chemical Industries (Osaka, Japan)
Protocol: Reaction mixtures consisted of 0.1 M potassium phosphate, 0.16 mM NADPH, and […] of rhAR with varied concentrations of substrate DL-glyceraldehyde and AR inhibitor in a total volume of 200 μL. Concentrations were ranged from 0.1 to 1.0 mM for DL-glyceraldehyde. rhAR activity was assayed spectrophotometrically by measuring the decrease in absorption of NADPH at 340 nm after substrate addition using Biotek Power Wave XS spectrophotometer (Biotek instruments, VT, USA). K m and V max of rhAR were determined with varying concentrations of DL-glyceraldehyde as a substrate in the absence and presence of different concentrations of inhibitor by Lineweaver-Burk double reciprocal plots. Inhibitory constant (K i) was derived by plotting slopes obtained from Lineweaver-Burk plots versus inhibitors concentration.

[5] = concentration 10 μg/mL, mean of triplicate
[6] = read-out: IC50 (μg/mL) RLAR (converted)

`O=c1c(O)c(-c2ccc(O)c(O)c2)oc2cc(O)cc(O)c12` [Quercetin, quercetin, reference compound] was tested, and the “Galactitol content (μM) in rat erythrocyte” value (shortened to “Galactitol content (μM)”) [1] was 16.15 µM, the inhibition at 50 µg/mL [1] was 30.5% and the inhibition at 1 µg/mL ([2]; mean of triplicate) was 30.3%. For the same compound, the inhibition at 5 µg/mL ([2]; mean of triplicate) was 67.9%, the inhibition at 10 µg/mL [2, 5] was 83% and the “Galactitol content μg/lens wet weight (g)” value [3] was 448.81 ± 69.43 μg/lens wet weight (g). For the same compound, the inhibition at 5 µg/mL [3] was 46.8%.

With `OC[C@H]1O[C@@H](Oc2cc3c(O)cc(O)cc3[o+]c2-c2ccc(O)c(O)c2)[C@H](O)[C@@H](O)[C@@H]1O` [Cyanidin-3-glucoside (8), cyanidin-3-glucoside] the “RLAR inhibitory activity (in words)” value [2] was “did not RLAR inhibitory activity”, the inhibition at 40 µg/mL ([2]; mean of triplicate) was 47.7% and the IC50 [2, 6] was over 89 µM.

In the case of `COc1cc(-c2[o+]c3cc(O)cc(O)c3cc2O[C@@H]2O[C@H](CO)[C@@H](O)[C@H](O)[C@H]2O)ccc1O` [Peonidin-3-glucoside (10), peonidin-3-glucoside], the “RLAR inhibitory activity (in words)” value [2] is reported as “did not RLAR inhibitory activity”, the inhibition at 40 µg/mL ([2]; mean of triplicate) is reported as 37% and the IC50 [2, 6] is reported as over 86.3 µM.

In the case of `OC[C@H]1O[C@@H](Oc2cc3c(O)cc(O)cc3[o+]c2-c2ccc(O)cc2)[C@H](O)[C@@H](O)[C@@H]1O` [Pelargonidin-3-glucoside (9), pelargonidin-3-glucoside], the “RLAR inhibitory activity (in words)” value [2] is reported as “did not RLAR inhibitory activity”, the inhibition at 40 µg/mL ([2]; mean of triplicate) is reported as 13.2% and the IC50 [2, 6] is reported as over 92.3 µM.

In the case of `O=C(O)CC(=O)OC[C@H]1O[C@@H](Oc2cc3c(O)cc(O)cc3[o+]c2-c2ccc(O)c(O)c2)[C@H](O)[C@@H](O)[C@@H]1O` [Cyanidin-3-(6′′-malonylglucoside) (11), cyanidin 3-(6′′-malonylglucoside)], the inhibition at 1 µg/mL ([2]; mean of triplicate) is reported as 19%, the inhibition at 5 µg/mL ([2]; mean of triplicate) is reported as 47.8% and the inhibition at 10 µg/mL [2, 5] is reported as 68%. For the same compound, the IC50 ([2]; read-out: IC50 (μM) RLAR) was 11.7 µM and the IC50 [2, 6] was 11.7 µM.

Compound `O=C(O)C=Cc1ccc(O)cc1` [p-hydroxycinnamic acid (4), p-hydroxycinnamic acid] has an inhibition at 1 µg/mL ([2]; mean of triplicate) of 13.8%, an inhibition at 5 µg/mL ([2]; mean of triplicate) of 43.7% and an inhibition at 10 µg/mL [2, 5] of 77.8%. The IC50 ([2]; read-out: IC50 (μM) RLAR) was 36.7 µM and the IC50 [2, 6] was 36.7 µM.

`COc1cc(-c2oc3cc(O)cc(O)c3c(=O)c2O[C@@H]2O[C@H](CO)[C@@H](O)[C@H](O)[C@H]2O)ccc1O` [3′-methoxyhirsutrin (7), 3′-methoxyhirsutrin] was tested, and the “Galactitol content (μM)” value [1] was 20.19 µM, the inhibition at 50 µg/mL [1] was about 12% and the “Inhibition type of rhAR” value [4] was “uncompetitive”. It also gave an inhibition at 1 µg/mL ([2]; mean of triplicate) of 16.4%, an inhibition at 5 µg/mL ([2]; mean of triplicate) of 73.7% and an inhibition at 10 µg/mL [2, 5] of 89.7%. For the same compound, the IC50 ([2]; read-out: IC50 (μM) RLAR) was 5.67 µM, the IC50 [2, 6] was 5.66 µM and the “Galactitol content μg/lens wet weight (g)” value [3] was 828.35 ± 73.27 μg/lens wet weight (g). For the same compound, the inhibition at 5 µg/mL [3] was 1.86%.

`O=C(O)CC(=O)OC[C@H]1O[C@@H](Oc2cc3c(O)cc(O)cc3[o+]c2-c2ccc(O)cc2)[C@H](O)[C@@H](O)[C@@H]1O` [pelargonidin 3-(6′′-malonylglucoside)] was tested, and the “RLAR inhibitory activity (in words)” value [2] was “did not RLAR inhibitory activity” and the IC50 [2, 6] was over 19.3 µM.

With `COc1cc(C(=O)O)ccc1O` [Vanillic acid (2), vanillic acid] the inhibition at 10 µg/mL [2, 5] was 20.3% and the IC50 [2, 6] was over 59.5 µM.

With `O=c1c(O[C@@H]2O[C@H](CO)[C@@H](O)[C@H](O)[C@H]2O)c(-c2ccc(O)c(O)c2)oc2cc(O)cc(O)c12` [Hirsutrin (6), hirsutrin] the “Galactitol content (μM)” value [1] was 15.70 µM, the inhibition at 50 µg/mL [1] was about 32.5% and the “Inhibition type of rhAR” value [4] was “competitive”. The inhibition at 1 µg/mL ([2]; mean of triplicate) was 27.6%, the inhibition at 5 µg/mL ([2]; mean of triplicate) was 76.2% and the inhibition at 10 µg/mL [2, 5] was 86.7%. For the same compound, the IC50 ([2]; read-out: IC50 (μM) RLAR) was 4.78 µM, the IC50 [2, 6] was 4.78 µM and the “Galactitol content μg/lens wet weight (g)” value [3] was 558.92 ± 89.12 μg/lens wet weight (g). The inhibition at 5 µg/mL [3] was about 33.8%.

Work on `O=C(O)c1ccc(O)c(O)c1` [Protochatechuic acid (1), protocatechuic acid] yielded an IC50 [2, 6] of over 64.9 µM and an inhibition at 10 µg/mL [2] of 3.22%.

`COc1cc(/C=C/C(=O)O)ccc1O` [Ferulic acid (5), ferulic acid] gave an inhibition at 1 µg/mL ([2]; mean of triplicate) of 11.2%, an inhibition at 5 µg/mL ([2]; mean of triplicate) of 49.8% and an inhibition at 10 µg/mL [2, 5] of 77.2%. It also gave an IC50 ([2]; read-out: IC50 (μM) RLAR) of 21.9 µM and an IC50 [2, 6] of 21.8 µM.

In the case of `O=C(O)c1c(O)cc(O)cc1O` [2,4,6-trihydroxybenzoic acid (3), 2,4,6-trihydroxybenzoic acid], the inhibition at 1 µg/mL ([2]; mean of triplicate) is reported as 16.9%, the inhibition at 5 µg/mL ([2]; mean of triplicate) is reported as 48.1% and the inhibition at 10 µg/mL [2, 5] is reported as 73.7%. It also gave an IC50 ([2]; read-out: IC50 (μM) RLAR) of 34.8 µM and an IC50 [2, 6] of 34.8 µM.

Reference: article PMC3613087, “Aldose Reductase Inhibitory Activity of Compounds from Zea mays L” (BioMed Research International, 2013)
